Experimental data published in PubChem BioAssay AID330 (DTP/NCI, 2004).
Several values for one entry are separate records, joined by “and”; a condition that tells them apart may be missing. Identical values can stand only once. Toxic doses and inconclusive results are not listed.

System: P388 leukemia ip, CD2F1 mice, survival T/C
Assay: NCI In Vivo Anticancer Drug Screen. Data for tumor model P388 Leukemia (intraperitoneal) in CD2F1 (CDF1) mice
Details: endpoint: median survival time, higher = longer survival
In short: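 Mice carrying the transplanted tumor received test compound or vehicle. Survival was recorded in each group, and the value is the treated-group measurement divided by that of the vehicle-treated control group.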

[1] = dose: 100.0 mg/kg/injection, schedule: Q01DX009 (ip), vehicle: saline with Tween-80
[2] = dose: 200.0 mg/kg/injection, schedule: Q01DX009 (ip), vehicle: saline with Tween-80
[3] = dose: 50.0 mg/kg/injection, schedule: Q01DX009 (ip), vehicle: saline with Tween-80
[4] = dose: 50.0 mg/kg/injection, schedule: Q01DX005 (ip), vehicle: saline with Tween-80
[5] = dose: 100.0 mg/kg/injection, schedule: Q01DX005 (ip), vehicle: saline with Tween-80
[6] = dose: 200.0 mg/kg/injection, schedule: Q01DX005 (ip), vehicle: saline with Tween-80

## O=C(OCCN1CCN(CCCN2c3ccccc3Sc3ccc(C(F)(F)F)cc32)CC1)C12CC3CC(CC(C3)C1)C2
dose: 3.12 mg/kg/injection, schedule: Q01DX009 (ip), vehicle: Klucel (hydroxypropylcellulose) (HPC)
  T/C: 105 % of control
dose: 6.25 mg/kg/injection, schedule: Q01DX009 (ip), vehicle: Klucel (hydroxypropylcellulose) (HPC)
  T/C: 103 % of control and 96 % of control
dose: 12.5 mg/kg/injection, schedule: Q01DX009 (ip), vehicle: Klucel (hydroxypropylcellulose) (HPC)
  T/C: 110 % of control and 112 % of control and 97 % of control
dose: 25.0 mg/kg/injection, schedule: Q01DX009 (ip), vehicle: Klucel (hydroxypropylcellulose) (HPC)
  T/C: 112 % of control
dose: 50.0 mg/kg/injection, schedule: Q01DX009 (ip), vehicle: Klucel (hydroxypropylcellulose) (HPC)
  T/C: 113 % of control
dose: 100.0 mg/kg/injection, schedule: Q01DX009 (ip), vehicle: Klucel (hydroxypropylcellulose) (HPC)
  T/C: 118 % of control

## CSCCCNC(=O)c1csc(-c2csc(CCNC(C)=O)n2)n1
dose: 100.0 mg/kg/injection, schedule: Q04DX002 (ip), vehicle: saline with Tween-80
  T/C: 98 % of control
dose: 200.0 mg/kg/injection, schedule: Q04DX002 (ip), vehicle: saline with Tween-80
  T/C: 95 % of control
dose: 400.0 mg/kg/injection, schedule: Q04DX002 (ip), vehicle: saline with Tween-80
  T/C: 97 % of control

## NC(=O)CC1=Cc2c(ccc3ccc(O)cc23)C1
dose: 12.5 mg/kg/injection, schedule: Q01DX009 (ip), vehicle: distilled water + Tween-80
  T/C: 97 % of control
dose: 25.0 mg/kg/injection, schedule: Q01DX009 (ip), vehicle: distilled water + Tween-80
  T/C: 91 % of control
dose: 50.0 mg/kg/injection, schedule: Q01DX009 (ip), vehicle: distilled water + Tween-80
  T/C: 102 % of control
dose: 100.0 mg/kg/injection, schedule: Q01DX009 (ip), vehicle: distilled water + Tween-80
  T/C: 93 % of control
dose: 200.0 mg/kg/injection, schedule: Q01DX009 (ip), vehicle: distilled water + Tween-80
  T/C: 90 % of control

## CC[N+](CC)(CC)c1ccccc1
dose: 6.25 mg/kg/injection, schedule: Q04DX002 (ip), vehicle: saline
  T/C: 105 % of control
dose: 12.5 mg/kg/injection, schedule: Q04DX002 (ip), vehicle: saline
  T/C: 111 % of control
dose: 25.0 mg/kg/injection, schedule: Q04DX002 (ip), vehicle: saline
  T/C: 100 % of control and 104 % of control

## COC(=O)C(NC(=O)C(NC(=O)c1c2nc3c(C(=O)NC(C(=O)NC(C(=O)OC)C(C)C)C(C)O)ccc(C)c3oc-2c(C)c(=O)c1N)C(C)O)C(C)C (stereo not given)
dose: 0.05 mg/kg/injection, schedule: Q01DX009 (ip), vehicle: water
  T/C: 117 % of control
dose: 0.1 mg/kg/injection, schedule: Q01DX009 (ip), vehicle: water
  T/C: 101 % of control
dose: 0.2 mg/kg/injection, schedule: Q01DX009 (ip), vehicle: water
  T/C: 99 % of control
dose: 0.4 mg/kg/injection, schedule: Q01DX009 (ip), vehicle: water
  T/C: 100 % of control
dose: 0.8 mg/kg/injection, schedule: Q01DX009 (ip), vehicle: water
  T/C: 99 % of control
dose: 1.6 mg/kg/injection, schedule: Q01DX009 (ip), vehicle: water
  T/C: 102 % of control and 90 % of control
dose: 3.2 mg/kg/injection, schedule: Q01DX009 (ip), vehicle: water
  T/C: 92 % of control
dose: 6.4 mg/kg/injection, schedule: Q01DX009 (ip), vehicle: water
  T/C: 99 % of control
dose: 12.8 mg/kg/injection, schedule: Q01DX009 (ip), vehicle: water
  T/C: 101 % of control

## CN(C)c1ccc2c(=O)cc[nH]c2c1
dose: 50.0 mg/kg/injection, schedule: Q01DX005 (ip), vehicle: saline
  T/C: 96 % of control
dose: 100.0 mg/kg/injection, schedule: Q01DX005 (ip), vehicle: saline
  T/C: 100 % of control
dose: 200.0 mg/kg/injection, schedule: Q01DX005 (ip), vehicle: saline
  T/C: 100 % of control

## CN(C)c1ncnc2c1ncn2CC(O)CN (stereo not given)
dose: 50.0 mg/kg/injection, schedule: Q01DX005 (ip), vehicle: distilled water + alcohol
  T/C: 100 % of control
dose: 100.0 mg/kg/injection, schedule: Q01DX005 (ip), vehicle: distilled water + alcohol
  T/C: 103 % of control
dose: 200.0 mg/kg/injection, schedule: Q01DX005 (ip), vehicle: distilled water + alcohol
  T/C: 96 % of control

## NC(=O)c1cncc(C(=O)O)c1
dose: 50.0 mg/kg/injection, schedule: Q01DX005 (ip), vehicle: Klucel (hydroxypropylcellulose) (HPC)
  T/C: 106 % of control
dose: 100.0 mg/kg/injection, schedule: Q01DX005 (ip), vehicle: Klucel (hydroxypropylcellulose) (HPC)
  T/C: 101 % of control
dose: 200.0 mg/kg/injection, schedule: Q01DX005 (ip), vehicle: Klucel (hydroxypropylcellulose) (HPC)
  T/C: 100 % of control

## CCCCN(C)/N=N/c1[nH]ncc1C(=O)OCC
dose: 100.0 mg/kg/injection, schedule: Q01DX009 (ip), vehicle: other
  T/C: 120 % of control
dose: 200.0 mg/kg/injection, schedule: Q01DX009 (ip), vehicle: other
  T/C: 116 % of control

## CC(=O)c1cccc(NC2C(N)C(NC(=O)N(C)C)(C(C)O)C(C)(O)C2(O)COC(=O)c2c(C)cccc2O)c1 (stereo not given)
dose: 0.5 mg/kg/injection, schedule: Q01DX009 (ip), vehicle: other
  T/C: 86 % of control
dose: 1.0 mg/kg/injection, schedule: Q01DX009 (ip), vehicle: other
  T/C: 153 % of control
dose: 1.5 mg/kg/injection, schedule: Q01DX009 (ip), vehicle: acid diluted with saline
  T/C: 86 % of control

## NS(=O)(=O)c1ccc(N=Cc2ccccc2)cc1
[1]
  T/C: 103 % of control
[2]
  T/C: 100 % of control
dose: 400.0 mg/kg/injection, schedule: Q01DX009 (ip), vehicle: saline with Tween-80
  T/C: 98 % of control

## Nc1nnc(Cc2cccc3ccccc23)o1
dose: 60.0 mg/kg/injection, schedule: Q01DX005 (ip), vehicle: saline with Tween-80
  T/C: 109 % of control
dose: 120.0 mg/kg/injection, schedule: Q01DX005 (ip), vehicle: saline with Tween-80
  T/C: 106 % of control
dose: 240.0 mg/kg/injection, schedule: Q01DX005 (ip), vehicle: saline with Tween-80
  T/C: 103 % of control

## O=C(O)CCCCCOC(C[N+](=O)[O-])C(Cl)(Cl)Cl (stereo not given)
[3]
  T/C: 97 % of control
[1]
  T/C: 102 % of control
[2]
  T/C: 111 % of control

## c1ccc(C(SN=C2CCCCC2)(c2ccccc2)c2ccccc2)cc1
[4]
  T/C: 100 % of control
[5]
  T/C: 91 % of control
[6]
  T/C: 90 % of control

## c1ccc2nc3nc4ccccc4nc3nc2c1
dose: 15.0 mg/kg/injection, schedule: Q01DX009 (ip), vehicle: saline with Tween-80
  T/C: 92 % of control
dose: 30.0 mg/kg/injection, schedule: Q01DX009 (ip), vehicle: saline with Tween-80
  T/C: 114 % of control
dose: 50.0 mg/kg/injection, schedule: Q01DX005 (ip), vehicle: Klucel + Tween-80
  T/C: 90 % of control
[3]
  T/C: 103 % of control
dose: 60.0 mg/kg/injection, schedule: Q01DX009 (ip), vehicle: saline with Tween-80
  T/C: 111 % of control
dose: 100.0 mg/kg/injection, schedule: Q01DX005 (ip), vehicle: Klucel + Tween-80
  T/C: 96 % of control
[1]
  T/C: 113 % of control
dose: 200.0 mg/kg/injection, schedule: Q01DX005 (ip), vehicle: Klucel + Tween-80
  T/C: 93 % of control
[2]
  T/C: 107 % of control

## CC1=C/C(=C(\c2cc(C)c(O)c(C(=O)O)c2)c2c(Cl)cccc2Cl)C=C(C(=O)O)C1=O
[4]
  T/C: 103 % of control
[5]
  T/C: 100 % of control
[6]
  T/C: 100 % of control

## COc1c2ccccc2c(OC)c2c(OC(C)=O)c3c(c(OC(C)=O)c12)CC=CC3
dose: 3.13 mg/kg/injection, schedule: Q01DX009 (ip), vehicle: other
  T/C: 96 % of control
dose: 6.25 mg/kg/injection, schedule: Q01DX009 (ip), vehicle: other
  T/C: 104 % of control
dose: 25.0 mg/kg/injection, schedule: Q01DX009 (ip), vehicle: other
  T/C: 93 % of control
dose: 50.0 mg/kg/injection, schedule: Q01DX009 (ip), vehicle: other
  T/C: 96 % of control

## C/C(=C\CCC(C)C1CCC2(C)C3=C(CCC12C)C1(C)CCC(O)C(C)(C)C1CC3)C(=O)O (stereo not given)
dose: 12.5 mg/kg/injection, schedule: Q01DX005 (ip), vehicle: DMSO
  T/C: 103 % of control
dose: 25.0 mg/kg/injection, schedule: Q01DX005 (ip), vehicle: DMSO
  T/C: 101 % of control
dose: 50.0 mg/kg/injection, schedule: Q01DX005 (ip), vehicle: DMSO
  T/C: 88 % of control
dose: 100.0 mg/kg/injection, schedule: Q01DX005 (ip), vehicle: DMSO
  T/C: 91 % of control

## COc1ccc(CCNC(=O)CCN2C(=O)CCC2=O)cc1OC
dose: 100.0 mg/kg/injection, schedule: Q01DX009 (ip), vehicle: saline sonified
  T/C: 105 % of control
dose: 200.0 mg/kg/injection, schedule: Q01DX009 (ip), vehicle: saline sonified
  T/C: 105 % of control
dose: 400.0 mg/kg/injection, schedule: Q01DX009 (ip), vehicle: saline sonified
  T/C: 110 % of control
